Results reported in paper PMC8695447, “Novel Small Molecules Capable of Blocking mtRAS-Signaling Pathway” (Frontiers in Oncology, 2021).

What was measured:
MDA-MB-231 (KRAS-G13D) = test: Anti-proliferation assay on MDA-MB-231; type: cell-based; details: Homo sapiens, MDA-MB-231; 72 h treatment; average with SD (n = 3, duplicate)
Procedure: (§1) Ba/F3-parental, OCI-AML3, U397 cells were purchased from DSMZ. MDA-MB-231, HCT-116, AsPC-1, H358, HT-29, SW480, and DU-145 cells were obtained from KCLB. MDA-MB-468 cells were obtained from ATCC. All cells were maintained in RPMI with 10% FBS and antibiotics. Cells were grown in a humidified 5% CO2 incubator at 37°C. Ba/F3-parental cells were grown in the presence of 10 ng/ml IL-3. NRAS-G12D or NRAS-G12V transformed Ba/F3 cell lines (Ba/F3-NRAS-G12D, and Ba/F3-NRAS-G12V, respectively) were cultured without IL-3, which were established by the procedure described as previously ([30]).
(§2) Approximately 3.0 × 10^3 cells/well were seeded in a 96-well cell culture plate. After stabilization, 1/3 serially diluted compound in DMSO was treated to the cell. […] All GI50 values were obtained in duplicate with three independent assays and averages with standard deviation are presented.

Ba/F3-NRAS-G12D cells = test: Anti-proliferation assay (CellTiter Glo) on Ba/F3-NRAS-G12D; type: cell-based; details: Mus musculus, BaF3; 72 h treatment; average with SD (n = 3, duplicate)
Procedure: as §1, §2

[1] = system: Ba/F3-NRAS-G12D and Ba/F3-NRAS-G12V cells; test: Flow cytometry apoptosis analysis (annexin V/PI), Ba/F3 mtRAS cells; type: cell-based; details: 1 μM, 24 h
Procedure: For apoptosis analysis, cells (1 × 10^6 cells per sample) were incubated with each compounds for 24 h. Cells were subjected to brief ice-cold PBS washing and subjected to staining with Alexafluor488-conjugated annexin V (Thermo Fisher, A13201), and propidium iodide (PI, Thermo Fisher, P3560). Thereafter, apoptotic cells were classified by FACS Accuri™ C6 Plus (BD Biosciences). Debris and unstained cells and were excluded by gating.
Figure 3 (A, B) The effects of SIJ1795 and SIJ1772 on apoptosis induction in Ba/F3 cells transformed with mtRAS (NRAS-G12D and NRAS-G12V). Cells were treated with 0.1 and 1 μM of SIJ1795, SIJ1772, and GNF-7 for 24 h Western blot analysis was conducted to evaluate the cleaved PARP and level. GAPDH was used as a loading control. (C) Apoptotic cell population (annexin V-positive) was determined by flow cytometry analysis (n = 3). Cells were treated with 1 μM of indicated compounds for 24 h. Statistical significance was calculated by a one-way ANOVA analysis (**p < 0.01, ***p < 0.001).

OCI-AML3 (NRAS-Q61L) = test: Anti-proliferation assay on OCI-AML3; type: cell-based, human; details: Homo sapiens, OCI-AML-3; 72 h treatment; average with SD (n = 3, duplicate)
Procedure: as §1, §2

[2] = system: Ba/F3 cells transformed with mtRAS (NRAS-G12D and NRAS-G12V) and cancer cells harboring mtRAS; test: Flow cytometry cell cycle analysis (PI); type: cell-based; details: 1 μM, 24 h
Procedure: For cell cycle analysis, cells (1 × 10^6 cells per sample) were incubated with each compounds for 24 h. Cells were subjected to brief ice-cold PBS washing and fixed with 70% EtOH for 1 h at −20°C. Cells were stained with PI/RNase staining solution (Cell signaling, #4087) and incubated 30 min at room temperature in a dark condition. Stained cells were subjected to flow cytometry analysis. Debris and unstained cells and were excluded by gating.
Figure 5 The effects of SIJ1795 and SIJ1772 on cell cycle arrest against in (A, B) Ba/F3 cells transformed with mtRAS (NRAS-G12D and NRAS-G12V) and (C, D) cancer cells harboring mtRAS. Cells were treated with 1 µM of SIJ1795, SIJ1772, and GNF-7 for 24 h. Cells were stained by PI and analyzed the percentage of cell cycle phase by flow cytometry.

[3] = system: phospho-AKT, -MEK, -ERK in Ba/F3-NRAS-G12D and Ba/F3-NRAS-G12V cells; test: Western blot, phospho-AKT, -MEK, -ERK in Ba/F3 cells transformed with mtRAS; type: cell-based; details: 2 h; for inhibitory capabilities on phosphorylation level of MEK, ERK, and AKT at 1 µM relative to GNF-7: Ba/F3 mtRAS cells; for phospho-AKT, -MEK, -ERK levels at 10 µM: Ba/F3 cells transformed with mtRAS (NRAS-G12D and NRAS-G12V)
Procedure: Approximately 1 × 10^6 cells per well were seeded in a 6-well cell culture plate. After cell adhesion, each compounds were treated for 2 h with indicated concentration and conducted brief washing twice by ice-cold PBS. Cells were lysed by NP40 buffer (50 mM Tris–HCl pH 7.4, 1% NP40, 2 mM EDTA, 150 mM NaCl) in the presence of protease inhibitor cocktail (Roche, #11873580001) and phosphatase inhibitor cocktail (Roche, #04906837001). Each sample was loaded with same amount of total protein and separated by SDS-PAGE gel. After transferred to nitrocellulose membrane, blocking with 5% skim milk (in TBS/T) was followed. The membrane was incubated 4°C for overnight with uniformly diluted primary antibodies at 1:1,000 (v/v) in TBS/T. The following primary antibodies were used: anti-p-AKT (Cell Signaling, #9271), anti-p-ERK1/2 (Cell Signaling, #4370), anti-PARP (Cell Signaling, #9542), anti-GAPDH (Cell Signaling, #5174), anti-p-70S6K1 (Cell Signaling, #9204), anti-p-JNK(Cell Signaling, #9251), anti-p-p38 (Cell Signaling, #9216), and anti-p-MEK1/2 (Santa Cruz, sc-81503). Each membrane was incubated with HRP-conjugated goat anti-Rabbit secondary antibody (Gendepot, SA002-500) or HRP-conjugated goat anti-Mouse secondary antibody (Gendepot, SA001-500) for 1 h (1:10,000, v/v) in TBS/T at room temperature and followed ECL solution treatment. Chemiluminescence signals were detected by ImageQuant™ LAS 4000 (GE Healthcare).
Figure 1 The effects of (A) SIJ1795 and (B) SIJ1772 on MAPK and PI3K/AKT signaling pathways in Ba/F3 cells transformed with mtRAS (NRAS-G12D and NRAS-G12V). Cells were treated with 0.1, 1, and 10 μM of SIJ1795, SIJ1772, and GNF-7 for 2 h. Western blot analysis was conducted to evaluate the phospho-AKT, -MEK, -ERK levels. GAPDH was used as the loading control.

HCT-116 (KRAS-G13D) = test: Anti-proliferation assay on HCT-116; type: cell-based; details: Homo sapiens, HCT-116; 72 h treatment; average with SD (n = 3, duplicate)
Procedure: as §1, §2

SMILES | GI50 (MDA-MB-231 (KRAS-G13D)) | GI50 (Ba/F3-NRAS-G12D cells) | apoptotic cells population (annexin V/PI) in Ba/F3-NRAS-G12D and Ba/F3-NRAS-G12V cells [1] | GI50 (OCI-AML3 (NRAS-Q61L)) | cell cycle arrest [2] | inhibitory capabilities on phosphorylation level of MEK, ERK, and AKT at 1 µM relative to GNF-7 [3] | phospho-AKT, -MEK, -ERK levels at 10 µM [3] | GI50 (HCT-116 (KRAS-G13D))
Cc1ccc(NC(=O)c2cccc(C(F)(F)F)c2)cc1N1Cc2cnc(Nc3cnn(C4CCN(S(C)(=O)=O)CC4)c3)nc2N(C)C1=O [SIJ1772, N-(4-Methyl-3-(1-methyl-7-((1-(1-(methylsulfonyl)piperidin-4-yl)-1H-pyrazol-4-yl)amino)-2-oxo-1,4-dihydropyrimido[4,5-d]pyrimidin-3(2H)-yl)phenyl)-3-(trifluoromethyl)benzamide] | 0.058 ± 0.001 µM | 0.077 ± 0.016 µM | increase of apoptotic cells | 0.065 ± 0.029 µM | G0/G1 arrest was induced | slightly increased relative to that of GNF-7 | completely inhibited | 0.038 ± 0.028 µM
CCN1CCN(c2cccc(Nc3ncc4c(n3)N(C)C(=O)N(c3cc(NC(=O)c5cccc(C(F)(F)F)c5)ccc3C)C4)c2)CC1 [SIJ1795, N-(3-(7-((3-(4-Ethylpiperazin-1-yl)phenyl)amino)-1-methyl-2-oxo-1,4-dihydropyrimido[4,5-d]pyrimidin-3(2H)-yl)-4-methylphenyl)-3-(trifluoromethyl)benzamide] | 0.053 ± 0.008 µM | 0.082 ± 0.031 µM | increase of apoptotic cells | 0.052 ± 0.052 µM | G0/G1 arrest was induced | slightly increased relative to that of GNF-7 | completely inhibited | 0.033 ± 0.006 µM
